Where two headings read alike, the source gives them in different places. Bounds are passed on as bounds.

For assay [1], the system named is A549 cancer cells. The assay can be described thus: MTT antiproliferative assay, A549. It is filed as cell-based, human. To be noted: MTT assay after 48 h. An excerpt: (§1) An A549 (human non-small cell lung cancer cell line) cell line was purchased from the Shanghai Cell Bank of the Chinese Academy of Sciences; PC-3 (human prostate cancer cell line) cell line was donated by the Key Laboratory of Natural Product Chemistry of the Chinese Academy of Sciences of Guizhou Province; HepG2 (human liver cancer cell line) and NRK 52E (normal rat kidney cell line) cell line was donated by Guizhou Medical University; all cell lines were kept by the laboratory.
(§2) The antiproliferative activity of target compounds against A549, PC-3, HepG2, and NRK-52E were determined by MTT assay, as described in previous articles. The assay was recorded at 490 nm by an Infinite® M200 PRO multimode microplate (Tecan, Männedorf, Switzerland).

The test system of assay [2] is PC-3 cancer cells. The assay can be described thus: MTT antiproliferative assay, PC-3. In kind it is cell-based, human. To be noted: MTT assay after 48 h.
Source text: as §1, §2
(In general: Formazan colour is commonly taken as a measure of viable cells.)

Assay [3] relates to HepG2 cancer cells. Description: MTT antiproliferative assay, HepG2. It is filed as cell-based, human. The following applies: read-out: IC50 HepG2.
Source text: as §1, §2

The test system of assay [4] is NRK-52E cells. The assay can be described thus: MTT cytotoxicity assay, normal NRK-52E cells. In kind it is cell-based. To be noted: MTT assay after 48 h, normal rat kidney cell line.
Source text: as §1, §2

Assay [5] deals with A549 cells. The assay can be described thus: Scratch test (cell migration). In kind it is cell-based, human. To be noted: A549, 6 μM. How it is done:
According to the previous methods, A549 cells of the logarithmic growth stage were cultured in 6-well plates with two lines on the back, with each well containing a density of 1 × 10^6 cells/mL. After the cells adhered to the wall, three uniform thin lines were drawn in each well by a sterile pipette tip. Afterward, the medium containing 1% fetal bovine serum (FBS) and various concentrations of compounds were added in wells. After the different time of incubation, the cells were performed by an inverted fluorescence microscope. Then the scratch healing rate was calculated: Migration distance (n h) = edge distance (0 h) − edge distance (12 h or 24 h).

Where [6] appears, read: Homo sapiens, HepG2, 48 h, MTT assay after 48 h.

In general, IC50 refers to the concentration needed to halve the response being measured. On to `COc1cc(/C=C/C(=O)CC(=O)/C=C/c2ccc(O)c(OC)c2)ccc1O` [Curcumin, reference compound], for which the IC50 in assay [1] (Homo sapiens, A549) is 69.6 ± 1.18 µM; in assay [2] (Homo sapiens) it was 73.4 ± 4.99 µM; in assay [3] (Homo sapiens, HepG2, 48 h) it was 40.2 ± 1.74 µM; in assay [4], greater than 300 µM.
Turning to `COc1cc2ncnc(Nc3ccc(F)c(Cl)c3)c2cc1OCCCN1CCOCC1` [Gefitinib, reference compound], the results for the “Cell relative migration (migration rate)” value in assay [5] (12 h (control 12.5%)) and in assay [5] (24 h (control 24.4%)) were 3.98% and 7.97%, respectively.
With `O=C(/C=C/c1ccccc1)NNC(=O)/C=C/c1ccccc1` [I1], the IC50 in assay [1] (Homo sapiens, A549) came out at 26.7 ± 0.43 µM; in assay [2] (Homo sapiens), 5.95 ± 1.52 µM; in assay [3] (setting [6]), 8.17 ± 0.46 µM.
In the case of `O=C(/C=C/c1ccccc1)NNC(=O)/C=C/c1ccccc1[N+](=O)[O-]` [I2], the IC50 was determined as 7.55 ± 1.22 µM in assay [1] (Homo sapiens, A549); 8.08 ± 2.24 µM in assay [2] (Homo sapiens); 9.33 ± 0.95 µM in assay [3] (setting [6]).
As to `O=C(/C=C/c1ccccc1)NNC(=O)/C=C/c1ccccc1Cl` [I3], the IC50 in assay [1] (Homo sapiens, A549) amounted to 6.48 ± 0.41 µM; in assay [2] (Homo sapiens) it was 7.38 ± 0.24 µM; in assay [3] (setting [6]), 9.53 ± 1.74 µM.
In the case of `O=C(/C=C/c1ccccc1)NNC(=O)/C=C/c1cccc([N+](=O)[O-])c1` [I4], the IC50 in assay [1] (Homo sapiens, A549) was determined as 6.05 ± 0.08 µM; in assay [2] (Homo sapiens), 15.8 ± 1.67 µM; in assay [3] (setting [6]) it was 6.32 ± 1 µM.
As for `O=C(/C=C/c1ccccc1)NNC(=O)/C=C/c1cccc(O)c1` [I5], the IC50 is 5.09 ± 0.08 µM in assay [1] (Homo sapiens, A549); 6.68 ± 0.96 µM in assay [2] (Homo sapiens); 8.69 ± 1.04 µM in assay [3] (setting [6]); 50 ± 4.4 µM in assay [4].
As to `COc1cccc(/C=C/C(=O)NNC(=O)/C=C/c2ccccc2)c1` [I6], the IC50 in assay [1] (Homo sapiens, A549) was 41 ± 4.47 µM; in assay [2] (Homo sapiens) it was 160 ± 10.9 µM; in assay [3] (setting [6]) it was 46.8 ± 0.14 µM.
For `O=C(/C=C/c1ccccc1)NNC(=O)/C=C/c1ccc([N+](=O)[O-])cc1` [I7], the IC50 in assay [1] (Homo sapiens, A549) amounted to 4.17 ± 0.93 µM; in assay [2] (Homo sapiens), 8.79 ± 3.19 µM; in assay [3] (setting [6]), 7.63 ± 1.75 µM; in assay [4], 21 ± 1.75 µM.
For the compound `O=C(/C=C/c1ccccc1)NNC(=O)/C=C/c1ccc(Cl)cc1` [I8], the IC50 in assay [1] (Homo sapiens, A549) was 9.57 ± 1.92 µM; in assay [2] (Homo sapiens) it was 63.2 ± 3.86 µM; in assay [3] (setting [6]), 6.98 ± 1.3 µM.
As for `O=C(/C=C/c1ccccc1)NNC(=O)/C=C/c1ccc(F)cc1` [I9], the IC50 in assay [1] (Homo sapiens, A549) is 24.9 ± 1.54 µM; in assay [2] (Homo sapiens), 4.68 ± 0.69 µM; in assay [3] (setting [6]), 7.63 µM; in assay [3] (MTT assay after 48 h), 4.75 ± 0.36 µM.
Regarding `Cc1ccc(/C=C/C(=O)NNC(=O)/C=C/c2ccccc2)cc1` [I10], the IC50 amounted to 19.5 ± 4.95 µM in assay [1] (Homo sapiens, A549); 70.3 ± 9.88 µM in assay [2] (Homo sapiens); 23.6 ± 2.67 µM in assay [3] (setting [6]).
Turning to `CC(C)c1ccc(/C=C/C(=O)NNC(=O)/C=C/c2ccccc2)cc1` [I11], the IC50 in assay [1] (Homo sapiens, A549) was determined as 43 ± 7.3 µM; in assay [2] (Homo sapiens), 19.2 ± 6.57 µM; in assay [3] (setting [6]), 18.6 ± 3.9 µM.
Take `COc1ccc(/C=C/C(=O)NNC(=O)/C=C/c2ccccc2)cc1` [I12]: the IC50 was determined as 10.9 ± 0.25 µM in assay [1] (Homo sapiens, A549); 39.4 ± 3.54 µM in assay [2] (Homo sapiens); 21.1 ± 4.07 µM in assay [3] (setting [6]).
Consider `CCOc1ccc(/C=C/C(=O)NNC(=O)/C=C/c2ccccc2)cc1` [I13], for which the IC50 in assay [1] (Homo sapiens, A549) was found to be 15 ± 4.9 µM; in assay [2] (Homo sapiens), 22.5 ± 2.64 µM; in assay [3] (setting [6]), 15.4 ± 0.93 µM.
For `CN(C)c1ccc(/C=C/C(=O)NNC(=O)/C=C/c2ccccc2)cc1` [I14], the IC50 in assay [1] (Homo sapiens, A549) worked out at 12.8 ± 0.6 µM; in assay [2] (Homo sapiens), 7.81 ± 1.69 µM; in assay [3] (setting [6]) it was 3.42 ± 0.49 µM; in assay [4], 7 ± 0.3 µM.
With `COc1cc(/C=C/C(=O)NNC(=O)/C=C/c2ccccc2)ccc1O` [I15], the IC50 is 35.8 ± 0.59 µM in assay [1] (Homo sapiens, A549); greater than 300 µM in assay [2] (Homo sapiens); 31.1 ± 7.66 µM in assay [3] (setting [6]).
Take `O=C(/C=C/c1ccccc1)NNC(=O)/C=C/C1CC1` [I16]: the IC50 amounted to 16.4 ± 0.98 µM in assay [1] (Homo sapiens, A549); 80.5 ± 5.43 µM in assay [2] (Homo sapiens); 78.5 ± 1.39 µM in assay [3] (setting [6]).
As to `O=C(/C=C/c1ccccc1)NNC(=O)/C=C/c1ccco1` [I17], the IC50 was 13 ± 2.4 µM in assay [1] (Homo sapiens, A549); 36 ± 0.7 µM in assay [2] (Homo sapiens); 34.5 ± 0.28 µM in assay [3] (setting [6]).
As to `O=C(/C=C/c1ccccc1)NNC(=O)/C=C/c1cccs1` [I18], the IC50 in assay [1] (Homo sapiens, A549) stood at 13.8 ± 0.29 µM; in assay [2] (Homo sapiens) it was 15.9 ± 1.14 µM; in assay [3] (setting [6]), 21.1 ± 3.76 µM.
In the case of `Cc1ncsc1/C=C/C(=O)NNC(=O)/C=C/c1ccccc1` [I19], the IC50 in assay [1] (Homo sapiens, A549) was determined as 26.6 ± 5.08 µM; in assay [2] (Homo sapiens) it was 96.4 ± 8.36 µM; in assay [3] (setting [6]), 89.3 ± 8.89 µM.
`O=C(/C=C/c1ccccc1)NNC(=O)/C=C/C1CCCCC1` [I20]: the IC50 in assay [1] (Homo sapiens, A549) was 16.3 ± 3.25 µM; in assay [2] (Homo sapiens) it was 21.8 ± 3.15 µM; in assay [3] (setting [6]), greater than 300 µM.
On to `O=C(/C=C/c1ccccc1)NNC(=O)/C=C/C1CC=CCC1` (stereo not shown) [I21], for which the IC50 in assay [1] (Homo sapiens, A549) is 8.27 ± 0.8 µM; in assay [2] (Homo sapiens), 21.6 ± 0.89 µM; in assay [3] (setting [6]), 20.4 ± 0.86 µM.
`O=C(/C=C/c1ccccc1)NNC(=O)/C=C/c1cccnc1` [I22]: the IC50 was determined as 60.2 ± 2.37 µM in assay [1] (Homo sapiens, A549); 159 ± 5.88 µM in assay [2] (Homo sapiens); 43.3 ± 1.1 µM in assay [3] (setting [6]).
The like results for `COc1ccc(/C=C/C(=O)NNC(=O)/C=C/c2ccc([N+](=O)[O-])cc2)cc1` [I24, (E)-3-(4-methoxyphenyl)-N'-((E)-3-(4-nitrophenyl)acryloyl)acrylohydrazide] were, in that order, 5.17 ± 0.41 µM, 15.7 ± 2.98 µM and 8.08 ± 2.25 µM.
`COc1cccc(/C=C/C(=O)NNC(=O)/C=C/c2cccc(OC)c2)c1` [I26]: the IC50 was determined as 11 ± 1.72 µM in assay [1] (Homo sapiens, A549); 21 ± 2.32 µM in assay [2] (Homo sapiens); 14.5 ± 2.56 µM in assay [3] (setting [6]).
Take “(E)-3-(3-methoxyphenyl)-N'-((E)-3-(3-methoxyphenyl)acryloyl)acrylohydrazide [I25]”: the IC50 in assay [1] came out at 144 ± 8.95 µM; in assay [2], 142 ± 6.79 µM; in assay [3] (MTT assay after 48 h), 80 ± 4.04 µM.

The values above are taken from article PMC9604255, “Discovery of Simple Diacylhydrazine-Functionalized Cinnamic Acid Derivatives as Potential Microtubule Stabilizers” (International Journal of Molecular Sciences, 2022).
